We go through 16 compounds from publication PMC12707362, “Targeting Aurora Kinases as Essential Cell‐Cycle Regulators to Deliver Multi‐Stage Antimalarials Against Plasmodium Falciparum” (Angewandte Chemie (International Ed. in English), 2025).

Molecules are shown by their SMILES. Counter-ions that a name gives are not always drawn. Like-named read-outs stand apart in the source and are kept apart here.

Series [1] relates to P. falciparum drug-sensitive NF54 (PfNF54) asexual intra-erythrocytic parasites. In words: SYBR Green I proliferation assay, PfNF54 asexual blood stages. Format: cell-based, Plasmodium falciparum. The conditions noted are these: read-out: Pf NF54 ABS IC50. The text has this: Figure 1 Activity profile of Aur class anticancer inhibitors across the life cycle of Plasmodium falciparum parasites. a) Activity (IC50) of inhibitors (grouped based on specificity against human Aur) against P.falciparum drug‐sensitive (PfNF54) asexual intra‐erythrocytic parasites as measured with SYBR Green I fluorescence as an indicator of viability and proliferation. […] ABS, asexual blood stages of the parasite; HsAur, human Aur.
P. falciparum drug sensitive NF54 (PfNF54) and drug-resistant Dd2 (PfDd2, chloroquine, pyrimethamine and mefloquine resistant) strains were cultured in vitro in human O^+/A^+ erythrocytes (5% hematocrit) in complete medium at 2–5% parasitemia, 37 °C, shaking at 60 rpm under hypoxic conditions (90% N2, 5% O2 and 5% CO2). […] Gametocytogenesis was followed with daily media changes (including glucose) and ABS parasites removed with 50 mM N-acetylglucosamine (day 1–4 for stage II/III; days 3–7 for stage IV/V).
All inhibitors were dissolved in dimethyl sulfoxide (DMSO). […] Ring-stage ABS parasites (1% parasitemia, 1% hematocrit) were treated with compounds for 96 h at 37 °C with chloroquine disulphate (0.5 μM) as positive drug control. […] Luciferase activity was determined using a non-lysing D-luciferin substrate (1 mM in 0.1 M citrate buffer, pH 5.5, 100 μL) and bioluminescence was detected with a GloMax® - Multi Detection System with Instinct® software.

Series [2] relates to late-stage (stage IV/V) gametocytes, P. falciparum 3D7elo1-pfs16-CBG99. In words: Luciferase reporter assay, late-stage gametocytes. The following applies: Plasmodium falciparum, 48 h, read-out: Pf Late stage gametocyte %inhibition @ 5 µM. Format: cell-based. The method, then: (§1) P. falciparum drug sensitive NF54 (PfNF54) and drug-resistant Dd2 (PfDd2, chloroquine, pyrimethamine and mefloquine resistant) strains were cultured in vitro in human O^+/A^+ erythrocytes (5% hematocrit) in complete medium at 2–5% parasitemia, 37 °C, shaking at 60 rpm under hypoxic conditions (90% N2, 5% O2 and 5% CO2). Immature and mature gametocytes were produced from P. falciparum 3D7elo1-pfs16-CBG99 (kind gift from Pietro Alano, ISS, Italy) ^[1] as described^[2,3] by simultaneously applying nutrient starvation and decreasing hematocrit to induce >97% ring-stage ABS parasites (0.5% parasitemia, 6% hematocrit). Gametocytogenesis was followed with daily media changes (including glucose) and ABS parasites removed with 50 mM N-acetylglucosamine (day 1–4 for stage II/III; days 3–7 for stage IV/V).
(§2) All inhibitors were dissolved in dimethyl sulfoxide (DMSO). Antiplasmodium activity of selected anti-cancer inhibitors was determined on P. falciparum NF54 and Dd2 strains, measuring SYBR Green I fluorescence (485 nm excitation, 538 nm emission) as an indicator of proliferation^[4]. Ring-stage ABS parasites (1% parasitemia, 1% hematocrit) were treated with compounds for 96 h at 37 °C with chloroquine disulphate (0.5 μM) as positive drug control. The activity of the inhibitors was tested against immature (>95% stage II/III) and late-stage (>90% stage IV/V) gametocytes using a luciferase reporter assay on 3D7elo1-pfs16-CBG99 ^[1]. […] Luciferase activity was determined using a non-lysing D-luciferin substrate (1 mM in 0.1 M citrate buffer, pH 5.5, 100 μL) and bioluminescence was detected with a GloMax® - Multi Detection System with Instinct® software.
(In general: A reporter such as luciferase makes a cellular process visible.)

The subject of series [3] is immature (stage II/III) gametocytes, P. falciparum 3D7elo1-pfs16-CBG99. In words: Luciferase reporter assay, immature gametocytes. Format: cell-based, Plasmodium falciparum. The following applies: 48 h; for inhibition at 5 µM: Plasmodium falciparum, read-out: Pf Early stage gametocyte %inhibition @ 5 µM. The method, then: as §1, §2
Series [4] relates to P. berghei liver schizonts in HepG2-A16-CD81EGFP cells. In words: P. berghei (PbLuc) liver stage assay. Format: cell-based. The following applies: Plasmodium berghei; 48 h, PbLuc; read-out: Pb liver stage IC50. The text has this: (§3) (B) Antiplasmodial activity of nine anticancer aurora kinase inhibitors (selected based on their PfNF54 ABS activity) against P. falciparum multidrug-resistant ABS parasites (PfDd2 and PfK1). (C) Kinobead competitive inhibition data.
Plasmodium berghei (Pb) sporozoites were obtained by dissecting the salivary glands of infected Anopheles stephensi mosquitoes. These were provided by The SporoCore, at the University of Georgia, GA, USA (SporoCore.uga.edu). The parasites utilised a GFP-Lucama1-eef1 reporter line^[5]. These engineered parasites, termed Pb-Luc, were used to infect HepG2-A16-CD81EGFP cells. HepG2-A16-CD81EGFP cells stably transformed to express a GFP-CD81 fusion protein^[6] were cultured at 37 °C in 5% CO2 in DMEM (Invitrogen, Carlsbad, USA) supplemented with 10% FBS (Corning, NY, USA), 1X Pen/Strep/Glu (Thermo Fisher Scientific, USA). Compounds were prepared as 10 mM solutions in DMSO, and 10 nL of each (resulting in a final DMSO concentration of 0.1% per well) was transferred into assay plates using an ECHO 650 (Beckman). Concentrations ranged from 10 µM to 0.5 nM. Atovaquone (0.1 µM) served as a positive control, while 0.1% DMSO was used as a negative control. Liver stage (PbLuc) screening has been previously described^[7]. Human hepatic cells (3 × 10^3; HepG2-A16-CD81-EGFP) suspended in 5 µL of DMEM medium ([…], supplemented with 5% FBS, 5× Pen/Strep/Glu) were seeded in 1536-well plates (Greiner BioOne) using the MultiFlo FX (Agilent) 20 h before infection. PbLuc sporozoites, isolated from the salivary glands of A. stephensi mosquitoes, were filtered twice through a 20 µm nylon pore cell strainer. The sporozoites were resuspended in screening media, counted with a hemocytometer, and diluted to a final concentration of 200 sporozoites per µL. Each well received 1,000 sporozoites in 5 µL, dispensed via the GNF Dispenser II (GNF Systems). […] Luminescence was measured immediately with the Pherastar FSX reader (BMG Labtech). Luminescence values were normalized using the positive and negative controls. EC50 values were calculated with CDD Vault (Burlingame, CA). […]

In series [5] the test system is hepatocellular carcinoma (HepG2) cells. In words: Cytotoxicity counter-screening (MTT), HepG2. The following applies: HepG2 CC50/PfNF54 IC50. The method, then:
(§4) HepG2 and CHO cells were maintained at 37 °C, under a humidified atmosphere of 5% CO2, in DMEM high glucose media (Gibco) supplemented with 10% heat-inactivated FBS and 1% (v/v) Penicillin-Streptomycin antibiotics. […] The supernatant was discarded, and the cell pellet was resuspended in 1 mL DMEM media for cell counting by Trypan Blue. To determine the toxicity, cells were resuspended and seeded at a concentration of 1x10^4 cells/well in a 96-well plate and incubated for 24 h^[9,10]. Cells were treated in duplicate with a 10-fold serial dilution starting at 100 ug/mL of inhibitor in new media. After 48 h incubation, the viable cells were measured using the MTT tetrazolium reduction assay, where sterile 25 µL of a 5 mg/mL MTT was added to each well and incubated for 4 h before the […] formazan crystals were dissolved with 100 µL DMSO (Merck) per well. The absorbance, a measure of intracellular reduction of MTT, was measured at 540 nm (Multiskan GO). Emetine (50 µM) was included as a positive drug control, and the background was subtracted from all data before being normalised to the untreated^[9,10].
(Counterscreens check selectivity or assay interference.)

Series [6] in a line: Cytotoxicity counter-screening (MTT), HepG2. The following applies: human, HepG2 cells, HepG2 CC50, 48 h, MTT. The method, then:
as §4

Series [7] has as its system multidrug-resistant PfDd2 ABS parasites. In words: SYBR Green I proliferation assay, PfDd2 asexual blood stages. Format: cell-based. The conditions noted are these: Plasmodium falciparum, DD2, read-out: Pf Dd2 ABS IC50. The method, then: as §3, §1, §2
Series [8] in a line: Cytotoxicity counter-screening (MTT), CHO. The conditions noted are these: Chinese hamster, CHO cells. The method, then: as §4
Series [9] has as its system Chinese Hamster Ovary (CHO) cells. In words: Cytotoxicity counter-screening (MTT), CHO. The following applies: CHO CC50/PfNF54 IC50. The method, then: as §4
Series [10] deals with HepG2 and CHO cell lines versus PfNF54. Nature of the series: Selectivity of parasite versus mammalian cell lines. Format: cell-based. The following applies: mammalian cell line (CHO/HepG2) CC50 versus PfNF54 IC50; cell line not specified.
Description: HepG2 and CHO cells were maintained at 37 °C, under a humidified atmosphere of 5% CO2, in DMEM high glucose media (Gibco) supplemented with 10% heat-inactivated FBS and 1% (v/v) Penicillin-Streptomycin antibiotics. […] The supernatant was discarded, and the cell pellet was resuspended in 1 mL DMEM media for cell counting by Trypan Blue. To determine the toxicity, cells were resuspended and seeded at a concentration of 1x10^4 cells/well in a 96-well plate and incubated for 24 h^[9,10]. Cells were treated in duplicate with a 10-fold serial dilution starting at 100 ug/mL of inhibitor in new media. After 48 h incubation, the viable cells were measured using the MTT tetrazolium reduction assay, where sterile 25 µL of a 5 mg/mL MTT was added to each well and incubated for 4 h before the water-soluble formazan crystals were dissolved with 100 µL DMSO (Merck) per well. The absorbance, a measure of intracellular reduction of MTT, was measured at 540 nm (Multiskan GO). Emetine (50 µM) was included as a positive drug control, and the background was subtracted from all data before being normalised to the untreated^[9,10].
The mark [11] stands for this setting: ring-stage ABS, 96 h, SYBR Green I.
The mark [12] stands for this setting: Plasmodium falciparum, NF54, 96 h, ring-stage ABS, 96 h, SYBR Green I.

Turning to `Cc1cc(Nc2nn(-c3ccccc3)c(=O)c3ccccc23)n[nH]1` [PH-p, Phthalazinone pyrazole], the concentration for half-maximal inhibition (IC50) (as a rule, the concentration that gives 50% inhibition) in [1] (setting [11]) amounted to 2.72 µM.
In the case of `O=C(O)c1ccc(Nc2ncc3c(n2)-c2ccc(Cl)cc2C(c2c(F)cccc2F)=NC3)cc1` [MLN8054], the IC50 in series [1] (setting [12]) was at least 5 µM.
`O=C(O)[C@]1(Cc2cccc(Nc3nccs3)n2)CC[C@@H](Oc2cccc(Cl)c2F)CC1` [MK-5108]: the concentration for half-maximal inhibition (IC50) in series [1] (Plasmodium falciparum, NF54, 96 h) was at least 5 µM.
With `Cc1nn(C)cc1-c1nc2c(N3CCN(Cc4ccc(Cl)cc4)CC3)c(Cl)cnc2[nH]1` [CCT-736, CCT-241736], the IC50 in series [1] (setting [12]) was found to be 3.24 µM.
As for `Nc1nc(Nc2ccc(S(N)(=O)=O)cc2)nn1C(=O)c1c(F)cccc1F` [JNJ, JNJ-7706621], the IC50 in series [1] (setting [12]) amounted to 3.31 ± 0.813 µM.
Turning to `CN(C)c1ccc(-c2nc3ncc(Cl)c(N4CCN(CC(=O)Nc5nccs5)CC4)c3[nH]2)cc1` [CCT-202, CCT-129202], in series [1] (setting [11]), the IC50 was found to be 2.41 µM.
As for `CCc1cccc(CC)c1NC(=O)N1Cc2n[nH]c(NC(=O)c3ccc(N4CCN(C)CC4)cc3)c2C1` [PHA-32, PHA-680632], in series [1] (setting [12]), the IC50 was 3.13 µM.
Consider `Cc1cc(CN2CCN(c3c(Br)cnc4nc(-c5ccc(N6CCN(C)CC6)cc5)[nH]c34)CC2)no1` [CCT-690, CCT-137690], for which the IC50 in series [1] (setting [11]) was 1.66 µM.
In the case of `CO[C@@H](C(=O)N1Cc2n[nH]c(NC(=O)c3ccc(N4CCN(C)CC4)cc3)c2C1)c1ccccc1` [Danusertib], the inhibition (in general, the percentage by which the read-out fell short of the control) at 5 µM in series [2] is 2.6%; in series [3] it was 9.5%. The IC50 was determined as 6.22 µM in series [4], 1.41 µM in [1] (setting [12]) and 1.3 µM in series [7]. Moreover, the “Selectivity index (SI) HepG2” value in [5] was 24.8. Further, the figures for the 50% cytotoxic concentration (CC50) at 48 h in series [6] and in [8] were 35.1 µM and 33.2 µM, respectively. Further, the “Selectivity index (SI) CHO” value in series [9] was determined as 23.50.
On to `Cc1csc(-c2nnc(Nc3ccc(Oc4ncccc4-c4ccnc(N)n4)cc3)c3ccccc23)c1` [AMG 900], for which the IC50 in series [1] (setting [12]) is at least 5 µM.
For `COc1cc(Nc2ncc3c(n2)-c2ccc(Cl)cc2C(c2c(F)cccc2OC)=NC3)ccc1C(=O)O` [Alisertib, Alisertib (MLN8237)], the IC50 in series [1] (setting [12]) is at least 5 µM.
On to `CCn1cc(-c2ccnc3[nH]c(-c4cccc(CN(C)C)c4)cc23)c(-c2ccc(NC(=O)N(C)C)cc2)n1` [GSK-916, GSK-1070916], for which the inhibition at 5 µM is 31.5% in series [2] and around 70% in series [3]. Besides, in series [10], the “selectivity index (SI) towards the parasite” value is listed as below 10. Besides, the “Pf Early stage gametocyte %inhibition @ 5 µM” value in [3] is 67,1 ± 7,0%. Besides, in [5], the “Selectivity index (SI) HepG2” value is listed as 11.03. Also, the CC50 (as a rule, the concentration that lowers cell viability or growth by half) at 48 h is 13.1 µM in series [6] and 5.3 µM in [8]. Moreover, the IC50 is 1.18 µM in series [1] (setting [12]) and 0.404 µM in series [7]. For the same compound, the “Selectivity index (SI) CHO” value in series [9] is listed as 4.47.
Turning to `O=C(Nc1cccc(Cl)c1)Nc1ncc(CCNc2ncnc3ccsc23)s1` [SNS-314, SNS-314 Mesylate], the IC50 in [1] (setting [12]) is 1.44 µM.
Turning to `CC(=O)NCC(=O)N1[C@@H]2CC[C@H]1c1ccc(Nc3ncc(C(F)(F)F)c(NC4CCC4)n3)cc12` [PF-35, PF-03814735], in [1] (setting [11]), the IC50 is 2.12 ± 1.56 µM.
For `Cc1nc(N)sc1-c1ccnc(Nc2ccc(N3CCOCC3)cc2)n1` [CYC-116], the IC50 in [1] (setting [12]) was determined as 3.09 µM.
For the compound `COc1cc2ncnc(Nc3ccc(NC(=O)c4ccccc4)cc3)c2cc1OC` [Aki II, Aurora Kinase Inhibitor II], the IC50 in series [1] (setting [11]) was 2.15 µM.
